Each structure is given as a SMILES string.

T1 sequence (Q2M2I8 1-863 isoform Q2M2I8-2): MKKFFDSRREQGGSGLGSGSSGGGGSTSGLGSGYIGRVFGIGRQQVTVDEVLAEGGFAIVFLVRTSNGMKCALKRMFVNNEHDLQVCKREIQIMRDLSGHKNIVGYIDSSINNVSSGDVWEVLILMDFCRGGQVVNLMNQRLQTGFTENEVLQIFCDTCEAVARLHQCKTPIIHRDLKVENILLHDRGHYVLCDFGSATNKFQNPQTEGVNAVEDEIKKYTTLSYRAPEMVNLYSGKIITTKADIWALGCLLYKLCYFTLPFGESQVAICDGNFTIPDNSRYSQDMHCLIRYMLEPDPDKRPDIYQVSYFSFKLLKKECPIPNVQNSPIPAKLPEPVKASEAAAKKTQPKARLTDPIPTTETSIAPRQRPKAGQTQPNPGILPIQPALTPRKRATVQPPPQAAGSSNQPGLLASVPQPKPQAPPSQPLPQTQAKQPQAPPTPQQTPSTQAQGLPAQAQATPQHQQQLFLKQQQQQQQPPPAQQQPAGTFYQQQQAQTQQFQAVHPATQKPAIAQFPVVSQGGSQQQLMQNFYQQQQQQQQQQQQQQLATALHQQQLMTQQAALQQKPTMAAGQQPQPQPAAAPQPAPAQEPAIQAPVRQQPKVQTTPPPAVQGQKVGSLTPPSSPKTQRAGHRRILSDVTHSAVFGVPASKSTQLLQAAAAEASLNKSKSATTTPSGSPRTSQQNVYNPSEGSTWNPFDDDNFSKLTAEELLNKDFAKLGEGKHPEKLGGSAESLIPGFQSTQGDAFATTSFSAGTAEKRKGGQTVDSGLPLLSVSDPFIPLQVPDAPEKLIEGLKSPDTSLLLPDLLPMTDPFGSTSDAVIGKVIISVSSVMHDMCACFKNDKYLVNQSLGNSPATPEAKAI

This assay addresses T1, AAK1 (Homo sapiens, UniProt Q2M2I8).
T1 construct: HA; expressed in transfected cells; host or cells: HEK293F
Put plainly: HEK281 cell-based assay (phospho-mu2 Western blot in transfected HEK293F cells). The note with it: 3 hours incubation, read-out: CBA IC50. The procedure:
HEK293F cells were cultured in media containing DMEM (Gibco, cat. #11965), 10% FBS (SAFC Biosciences, cat. #12103C), 1×GPS (glutamine, penicillin and streptomycin). On day one, cells were plated on a 10 cm dish so that they are ˜80% confluent at time of transfection. Roughly 12 million cells were in a 10 cm dish at time of transfection. On day two, each dish was transfected with 48 ug DNA and 144 ul Lipofectamine 2000 (Invitrogen, cat.#11668-019). The DNA was comprised of a mixture (per 10 cm dish) containing 3 ug AAK1/HA/pIRES (full length human, NCBI accession no. NP_055726.2), 45 μg Flag/AP2MI/pcDNA (full length human), and 1.5 ml OPTI-MEM. The Lipofectamine 2000 is made up of a mixture (per 10 cm dish) containing 144 μl Lipofectamine 2000 and 1.5 ml OPTI-MEM. Each mixture was transferred to individual 15 ml tubes and incubated at RT for 5 minutes, and then the two mixes were combined and incubated at RT for 20 minutes. Growth media was then aspirated from each 10 cm plate and replaced with 10 ml of DMEM+10% FBS (no GPS). Finally, 3 ml DNA/Lipofectamine mix was added to each 10 cm dish and mix gently followed by incubate of plate overnight at 37° C. and 5% CO2.
On day three, compounds were diluted in 100% DMSO at 1000× final concentration, followed by 3-fold serial dilutions for a total of 5 concentrations tested. Four compounds were tested per 10 cm dish. One ul of each compound dilution was then pipetted into a deep-well, 96-well plate, followed by addition of 500 μl DMEM+0.5% FBS into each well for a 2× final concentration of each compound. Cells were resuspended in a 10 cm dish by simple pipetting (HEK293 cells come off the plate that easy at this point) and then transferred to a 50 ml conical tube and pelleted by centrifugation at 1000 rpm for 5 min. Cell pellets were then resuspended in 2.75 ml DMEM+0.5% FBS per 10 cm dish and 100 μl of cell suspension transferred into each well of 96-well TC plate. Finally, 100 μl of 2× compound diluted in DMEM+0.5% FBS was then added into wells containing cell suspension for a 1× final concentration. Plates were then incubated at 37° C. and 5% CO2 for 3 hours followed by transferring of cell suspensions from each well into 12-tube PCR strips. The PCR strips were spun in a tip rack at 1000 rpm for 5 minutes to pellet cells and media was then removed by pipetting without disturbing the cell pellet.
To prepare for Western Blot analysis, cell pellets were resuspend in 40 ul 1×LDS-PAGE sample buffer (Invitrogen, cat.#NP0008)+2× Halt phophatase and protease inhibitor cocktail (Thermo Scientific, cat.#1861284), followed by sonicating each with microtip sonicator set at 5 for 8-10 seconds. Five ul of 10× NuPage Sample Reducing Agent (with 50 mM DTT) was to each sample followed by heat denaturing at 70 C for 10 min on PCR machine. A total of 10 μl per sample was loaded into each lane of a 4-20% Tris-Glycine Criterion 26-well gel (Biorad, cat.#345-0034) for the phospho-mu2 blot and 10 μl per lane in a 4-12% Bis-Tris (+MES buffer) NuPAGE 26-well gel (Invitrogen, cat.#WG1403BX10) for the mu2 blot. For controls, 2 ng of phospho-mu2 or 20 ng mu2/Flag proteins were loaded in the last well of each gel. After SDS-PAGE, samples on each gel were transferred to PVDF membrane using an iBlot and membranes were blocked for one hour in TBST+5% milk, followed by wash 3× for 5-10 min with TBST. Criterion gels were probed with rabbit anti-phospho-mu2 (1:5000; a rabbit polyclonal antibody produced by New England Peptide and affinity purified at Lexicon) in TBST+5% BSA, whereas, NuPAGE gels were probed with mouse anti-Flag (1:500; Sigma, cat.#F1804) in TBST+5% milk, and these primary antibodies were incubated overnight at 4° C. on a rocker.
As for `CCC(C)CNc1ccc2ncc(-c3ccc(CN)cc3)n2n1` (stereo not drawn) [3-(4-(aminomethyl)phenyl)-N-(2-methylbutyl)imidazo[1,2-b]pyridazin-6-amine], the half-inhibitory concentration (IC50) is not above 1000 nM. With `NCc1ccc(-c2cnc3ccc(NCCOc4ccccc4)nn23)cc1` [3-(4-(aminomethyl)phenyl)-N-(2-phenoxyethyl)imidazo[1,2-b]pyridazin-6-amine], the half-inhibitory concentration (IC50) is not above 1000 nM. For `CC(C)(C)CCNc1ccc2ncc(-c3ccc(CN)cc3)n2n1` [3-(4-(aminomethyl)phenyl)-N-(3,3-dimethylbutyl)imidazo[1,2-b]pyridazin-6-amine] the value was not above 100 nM.

`NCc1ccc(-c2cnc3ccc(NCCCc4ccccc4F)nn23)cc1` [3-(4-(aminomethyl)phenyl)-N-(3-(2-fluorophenyl)propyl)imidazo[1,2-b]pyridazin-6-amine]: the IC50 is not above 100 nM. For the molecule `NCc1ccc(-c2cnc3ccc(NCCCc4cccc(F)c4)nn23)cc1` [3-(4-(aminomethyl)phenyl)-N-(3-(3-fluorophenyl)propyl)imidazo[1,2-b]pyridazin-6-amine], the IC50 is not above 100 nM. For `NCc1ccc(-c2cnc3ccc(NCCCc4ccc(F)cc4)nn23)cc1` [3-(4-(aminomethyl)phenyl)-N-(3-(4-fluorophenyl)propyl)imidazo[1,2-b]pyridazin-6-amine] the value was not above 100 nM; for `NCc1ccc(-c2cnc3ccc(NCCCOC4CCCC4)nn23)cc1` [3-(4-(aminomethyl)phenyl)-N-(3-(cyclopentyloxy)propyl)imidazo[1,2-b]pyridazin-6-amine], not above 100 nM. For `CC(C)(C)OCCCNc1ccc2ncc(-c3ccc(CN)cc3)n2n1` [3-(4-(aminomethyl)phenyl)-N-(3-(tert-butoxy)propyl)imidazo[1,2-b]pyridazin-6-amine] the value was not above 100 nM; for `NCc1ccc(-c2cnc3ccc(NCCc4cccc(C(F)(F)F)c4)nn23)cc1` [3-(4-(aminomethyl)phenyl)-N-(3-(trifluoromethyl)phenethyl)imidazo[1,2-b]pyridazin-6-amine], not above 100 nM; for `NCc1ccc(-c2cnc3ccc(NCCc4cccc(F)c4)nn23)cc1` [3-(4-(aminomethyl)phenyl)-N-(3-fluorophenethyl)imidazo[1,2-b]pyridazin-6-amine], not above 100 nM. As for `NCc1ccc(-c2cnc3ccc(NCCCF)nn23)cc1` [3-(4-(aminomethyl)phenyl)-N-(3-fluoropropyl)imidazo[1,2-b]pyridazin-6-amine], the IC50 was not above 1000 nM. As for `COc1cccc(CCNc2ccc3ncc(-c4ccc(CN)cc4)n3n2)c1` [3-(4-(aminomethyl)phenyl)-N-(3-methoxyphenethyl)imidazo[1,2-b]pyridazin-6-amine], the IC50 is not above 100 nM. As for `NCc1ccc(-c2cnc3ccc(NCCCCF)nn23)cc1` [3-(4-(aminomethyl)phenyl)-N-(4-fluorobutyl)imidazo[1,2-b]pyridazin-6-amine], the IC50 is not above 100 nM. `NCc1ccc(-c2cnc3ccc(NCCc4ccc(F)cc4)nn23)cc1` [3-(4-(aminomethyl)phenyl)-N-(4-fluorophenethyl)imidazo[1,2-b]pyridazin-6-amine]: the IC50 was not above 1000 nM.

Regarding `COc1ccc(CCNc2ccc3ncc(-c4ccc(CN)cc4)n3n2)cc1` [3-(4-(aminomethyl)phenyl)-N-(4-methoxyphenethyl)imidazo[1,2-b]pyridazin-6-amine], the IC50 is not above 100 nM. Take `NCc1ccc(-c2cnc3ccc(NCCCCc4ccccc4)nn23)cc1` [3-(4-(aminomethyl)phenyl)-N-(4-phenylbutyl)imidazo[1,2-b]pyridazin-6-amine]: the IC50 is not above 100 nM. For `NCc1ccc(-c2cnc3ccc(NCCCCCF)nn23)cc1` [3-(4-(aminomethyl)phenyl)-N-(5-fluoropentyl)imidazo[1,2-b]pyridazin-6-amine] the value was not above 1000 nM. Turning to `NCc1ccc(-c2cnc3ccc(NCC4CCOC4)nn23)cc1` (stereo not drawn) [3-(4-(aminomethyl)phenyl)-N-((tetrahydrofuran-3-yl)methyl)imidazo[1,2-b]pyridazin-6-amine], the IC50 was not above 1000 nM. Regarding `NCc1ccc(-c2cnc3ccc(NCC4CCC4)nn23)cc1` [3-(4-(aminomethyl)phenyl)-N-(cyclobutylmethyl)imidazo[1,2-b]pyridazin-6-amine], the IC50 is not above 1000 nM. Turning to `NCc1ccc(-c2cnc3ccc(NCC4CCCC4)nn23)cc1` [3-(4-(aminomethyl)phenyl)-N-(cyclopentylmethyl)imidazo[1,2-b]pyridazin-6-amine], the IC50 is not above 1000 nM. With `NCc1ccc(-c2cnc3ccc(NCC4CC4)nn23)cc1` [3-(4-(aminomethyl)phenyl)-N-(cyclopropylmethyl)imidazo[1,2-b]pyridazin-6-amine], the half-inhibitory concentration (IC50) is not above 1000 nM. `CC(C)CNc1ccc2ncc(-c3ccc(CN)cc3)n2n1` [3-(4-(aminomethyl)phenyl)-N-isobutylimidazo[1,2-b]pyridazin-6-amine]: the concentration for half-maximal inhibition (IC50) is not above 1000 nM. In the case of `CC(C)CCNc1ccc2ncc(-c3ccc(CN)cc3)n2n1` [3-(4-(aminomethyl)phenyl)-N-isopentylimidazo[1,2-b]pyridazin-6-amine], the IC50 was not above 1000 nM. As for `CC(C)(C)CNc1ccc2ncc(-c3ccc(CN)cc3)n2n1` [3-(4-(aminomethyl)phenyl)-N-neopentylimidazo[1,2-b]pyridazin-6-amine], the figure is not above 100 nM; as for `CCCCCNc1ccc2ncc(-c3ccc(CN)cc3)n2n1` [3-(4-(aminomethyl)phenyl)-N-pentylimidazo[1,2-b]pyridazin-6-amine], not above 1000 nM; as for `NCc1ccc(-c2cnc3ccc(NCCc4ccccc4)nn23)cc1` [3-(4-(aminomethyl)phenyl)-N-phenethylimidazo[1,2-b]pyridazin-6-amine], not above 1000 nM. On to `CCCNc1ccc2ncc(-c3ccc(CN)cc3)n2n1` [3-(4-(aminomethyl)phenyl)-N-propylimidazo[1,2-b]pyridazin-6-amine], for which the concentration for half-maximal inhibition (IC50) was not above 1000 nM. For `CC(C)OC(=O)N1CCN(c2ccc3ncc(-c4ccccc4)n3n2)CC1` [4-(3-Phenyl-imidazo[1,2-b]pyridazin-6-yl)-piperazine-1-carboxylic acid isopropyl ester] the value was not above 100 nM; for `CN(CCNc1ccc2ncc(-c3ccc(C(N)=O)cc3)n2n1)C(=O)CC(C)(C)C` [4-(6-((2-(N,3,3-trimethylbutanamido)ethyl)amino)imidazo[1,2-b]pyridazin-3-yl)benzamide], not above 100 nM; for `CCN(CC)CCNC(=O)c1ccc(-c2cnc3ccc(NCCOC(C)(C)C)nn23)cc1` [4-(6-((2-(tert-butoxy)ethyl)amino)imidazo[1,2-b]pyridazin-3-yl)-N-(2-(diethylamino)ethyl)benzamide], not above 100 nM.

`CNC(=O)c1ccc(-c2cnc3ccc(NCCOC(C)(C)C)nn23)cc1` [4-(6-((2-(tert-butoxy)ethyl)amino)imidazo[1,2-b]pyridazin-3-yl)-N-methylbenzamide]: the IC50 is not above 100 nM. In the case of `NC(=O)c1ccc(-c2cnc3ccc(NCCc4ccccc4OC(F)(F)F)nn23)cc1` [4-(6-((2-(trifluoromethoxy)phenethyl)amino)imidazo[1,2-b]pyridazin-3-yl)benzamide], the IC50 is not above 10 nM. On to `CCOc1ccccc1CCNc1ccc2ncc(-c3ccc(C(=O)NC)cc3)n2n1` [4-(6-((2-ethoxyphenethyl)amino)imidazo[1,2-b]pyridazin-3-yl)-N-methylbenzamide], for which the half-maximal inhibitory concentration (IC50) was not above 10 nM.

As a reminder, the IC50 is the concentration that inhibits the measured activity by half.

The values above are taken from patent publication US8969565B2, “Imidazo[1,2-b]pyridazine-based compounds, compositions comprising them, and methods of their use” (Lexicon Pharmaceuticals, Inc., priority 2012, dated 2015).
